Square brackets hold non-standard residues; d marks the D form. Peptide text beside a SMILES is read from it. Leu(ol) = CC(C)C[C@H](N)CO; dIva = CC[C@@](C)(N)C(=O)O; Aib = CC(C)(N)C(=O)O

For one assay, the system named is Dd2. Nature of the assay: Cross resistance screening (1536-well SYBR Green I), parental line. The assay is classed as cell-based, P. falciparum. The note with it: Winzeler laboratory cross resistance screen, 0.3% parasitemia, 2.5% hematocrit, 72 h, mean ± SEM of 3 biological replicates. How it is done: (§1) Parasites grown in the Winzeler laboratory for screening and drug selections were maintained in RPMI 1640 medium supplemented with 0.25% Albumax I, 26 mM sodium bicarbonate, 0.1 mM hypoxanthine, and […] gentamicin. Human O+ whole blood obtained from the Blood Bank of The Scripps Research Institute was used for cultivation (human subjects IRB number: 125933). Blood-stage cultures were kept at 37°C with 5% CO2, 3% O2, and 92% N2. Monitoring of parasitemia and parasite morphology was performed using microscopic evaluation of thin blood smears that were first fixed with methanol, and then stained with Giemsa.
(§2) Cross resistance screening was performed with 0.3% parasitemia, 2.5% hematocrit, dispensed into 1536-well black, clear bottom plates with pre-spotted compound using a MultiFloTM Microplate dispenser (BioTek) at a volume of 8 μL/well. Plates where then incubated at 37°C for 72 h, after which 10× SYBR Green I (Invitrogen) in a lysis buffer (20 mM Tris/HCl, 5 mM EDTA, 0.16% (w/v) saponin, 1.6% (v/v) […]) was then added using a MultiFloTM Microplate dispenser (BioTek) at a volume of 2 μL/well. After 24 h incubation at room temperature, viability was measured via fluorescence using the EnVision® Multilabel Reader (PerkinElmer) (485 nm excitation, 530 nm emission). IC50 values were determined in CDD vault (https://www.collaborativedrug.com/).

Another assay concerns PfACS_A597. Nature of the assay: Cross resistance screening (1536-well SYBR Green I). The note with it: 72 h, mean ± SEM of 3 biological replicates. The assay is classed as cell-based, P. falciparum. How it is done: as §1, §2
In a further assay the test system is PfCARL_I1139K. Described as above. The assay is classed as cell-based, P. falciparum. To be noted: 72 h, mean ± SEM of 3 biological replicates. How it is done: as §1, §2
The next assay relates to PfPI4K_S1320L. The assay is described as above. The assay is classed as cell-based, P. falciparum. To be noted: 72 h, mean ± SEM of 3 biological replicates. How it is done:
as §1, §2

A further assay deals with HepG2-A16-CD81 cells. The assay is classed as cell-based, H. sapiens. To be noted: HepG2-A16-CD81 without sporozoites, CellTiterGlo; up to 50 μM; read-out: HepG2 EC50 (liver stage counter screen). How it is done:
The liver stage was performed as discussed in.[61] Liver-stage inhibitory activity was evaluated in HepG2-A16-CD81 cells and using P. berghei sporozoites (P. berghei ANKA GFP-Luc-SMcon) freshly obtained by dissecting salivary glands of infected A. stephensi mosquitoes. Cells were first seeded in 1536-well plates (Greiner Bio) containing 50 nL of test and control compounds dissolved in DMSO and incubated for 24 h. Sporozoites were then added to each well at a density of 1 × 10^3 cells per well and kept at 37°C for 48 h. Afterwards, luciferin reagent (Promega BrightGlo) was added to each well, and luciferase activity was detected using a Perkin Elmer Envision plate. As a counter screen, HepG2-A16-CD81 cells were seeded as above and exposed to drug in the absence of sporozoites. Viability was evaluated by adding Promega CellTiterGlo® followed by luminescence measurement using a Perkin Elmer Envision plate reader. IC50 values were determined using CDD vault (https://www.collaborativedrug.com/).
Background: In ATP-based viability assays light output follows the ATP content of the culture.

Assay [1] deals with P. falciparum 3D7 transcriptome. Nature of the assay: RNASeq analysis of treated culture. The assay is classed as cell-based. The note with it: 3D7, 1 h, EC50 concentration, vs vehicle. How it is done: P. falciparum 3D7 culture was synchronized as previously described[64] by combination of MACS column (Mitenyi Biotic, Auburn, CA)[65] and 5% sorbitol.[66] In brief, asynchronous culture with a majority ring stage population was centrifuged, pelleted, and resuspended in 5% sorbitol and incubated at room temp for 10 min. Parasites were then washed with culture media and returned to the culture incubator. For MACS column, columns were rinsed once with RPMI prior to parasite addition. After flow-through was complete, parasites on the column were eluted onto culture plates and returned to the culture incubator. […] RNA was then extracted using Direct-zol™ RNA Miniprep Plus (Zymo Research Corporation, Irvine, CA.) following manufacturers protocols. In brief, culture was lysed with 0.1% saponin and incubated for 5 min prior to centrifuging at 900 x g for 6 min at 4°C. Cells were washed once with RPMI then once with PBS before resuspension in triazole reagent. Samples were mixed vigorously for 5 min, centrifuged at 16,000 x g for 1 min, then transferred to a RNase free tube, and an equal volume of EtOH was added. After mixing, sample was loaded onto column and centrifuged at 16,000 x g for 30 sec then washed with pre-wash buffer. Columns were incubated with DNase buffer for 15 min then washed with pre-wash buffer. Two more wash steps were performed before allowing any excess EtOH to dry for 2 min. Finally, columns were transferred to a new RNase free tube in which RNA was eluted with RNase free water.
Preliminary integrity and concentration determination was performed via nanodrop and RNA gel electrophoresis, prior to a full integrity check via Agilent Technologies 2100 Bioanalyzer. After rRNA depletion, RNA fragmentation was performed using elevated temperatures and divalent cation buffers. Library preparation was done using the Illumina TruSeq-stranded-total-RNA-sample preparation protocol, with Agilent Technologies 2100 Bioanalyzer High Sensitivity DNA Chip for quality control, and Illumina’s NovaSeq 6000 sequencing system for paired-ended sequencing. For transcript assembly, Cutadapt[71] and LC Sciences in house perl scripts were used to remove low quality or undetermined bases and reads, along with adaptor contamination. Sequence quality was then confirmed using FastQC.[72] Reads were mapped to the P. falciparum genome using Bowtie2[73] and HISAT2,[74] then assembled using StringTie.[75] To assist in the filtering process, the transcriptomes from HZ NPDG-I and the vehicle control were assembled simultaneously to construct a merged transcriptome using perl scripts and gffcompare.[76] Finally, StringTie[75] and edgeR[77] were used to estimate transcript expression levels by calculating FPKM using the following equation: FPKM=totalexonfragments/mappedreads(millions)xexonlength(kB)
To calculate p value, a parametric F-test comparing nested linear models was performed using edgeR.[77] The q-values were also calculated using a Benjamini-Hochberg procedure. Differential expression for mRNA was calculated at the gene level (all transcript isoforms grouped as 1 gene) and the transcript level (all transcript isoforms ranked individually). […] The coding potential of the remaining transcripts was then determined using CPC[78] and CNCI,[79] and transcripts with a CPC score <0.5 and/or CNCI score <0 were removed. […] The predicted cis-targets of the novel lncRNAs were then determined for the coding genes 100,000 bp upstream and downstream with perl script. […]

The term EC50 denotes the concentration giving half of the maximal effect. As to `CC[C@H](C)[C@H](NC(=O)[C@H](CC(C)C)NC(=O)[C@H](CCC(N)=O)NC(=O)[C@@](C)(CC)NC(C)=O)C(=O)NC(C)(C)C(=O)N1CCC[C@H]1C(=O)N[C@](C)(CC)C(=O)N[C@@H](CC(C)C)C(=O)NC(C)(C)C(=O)N1CCC[C@H]1C(=O)N[C@H](CO)CC(C)C` [HZ NPDG-I, harzianin NPDG I] (Ac-[dIva]QLI[Aib]P[dIva]L[Aib]P[Leu(ol)]), the EC50 in the assay on Dd2 worked out at 13 ± 6 nM. In the assay on PfACS_A597, the EC50 came out at 23 ± 5 nM. This compound also gave an EC50 in the assay with PfCARL_I1139K of 8 ± 1 nM. Besides, the EC50 in the assay with PfPI4K_S1320L worked out at 13 ± 3 nM. The EC50 in the assay with HepG2-A16-CD81 cells was more than 50000 nM. In assay [1], the “RNA-seq log2fc, PF3D7_0106100” value is −1.35; the “RNA-seq log2fc, PF3D7_0519200.1” value was −5.06; the “RNA-seq log2fc, PF37D_1419800.1” value is recorded as −3.23; the “RNA-seq log2fc, lncRNA MSTRG.194.1” value is recorded as 16.51. The “RNA-seq log2fc, lncRNA MSTRG.363.2” value in assay [1] amounted to 14.54.

The values above are taken from paper PMC10923054, “Antiplasmodial peptaibols act through membrane directed mechanisms” (Cell Chemical Biology, 2024).
